Reference: US7101878B1 (Agouron Pharmaceuticals, Inc., priority 1998, dated 2006)
Read-outs that look alike come from different tables or passages of the source.

Key:
[1] = Metabolism rate, pmol/min/mg at 1 μM, rat male; assay type: in vitro ADME; conditions: 1 μM compound
mouse GnRH receptor = biological target: T1, mouse GnRH receptor (Mus musculus, UniProt Q01776); assay: Radioligand binding, 125I-GnRH-A, 293 cells expressing mouse GnRH receptors; conditions: read-out: mGnRH IC50
T1 construct: expressed in transfected cells; host or cells: 293 cells
T1 sequence (Q01776 1-327): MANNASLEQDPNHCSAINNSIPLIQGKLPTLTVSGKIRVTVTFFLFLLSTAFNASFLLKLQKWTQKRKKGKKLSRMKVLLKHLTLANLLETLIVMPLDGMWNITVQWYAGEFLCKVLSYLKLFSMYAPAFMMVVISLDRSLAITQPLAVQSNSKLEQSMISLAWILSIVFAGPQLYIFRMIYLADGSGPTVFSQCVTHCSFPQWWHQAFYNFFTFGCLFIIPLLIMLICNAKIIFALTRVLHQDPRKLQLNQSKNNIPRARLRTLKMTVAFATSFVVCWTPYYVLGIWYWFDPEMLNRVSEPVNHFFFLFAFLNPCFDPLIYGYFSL
How it was run: (§1)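 Bound label captured on 0.1% polyethyleneimine-treated GF/C filters, washed three times with PBS, counted. IC50 derived; identical set-up for every species.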

rat GnRH receptor = biological target: T2, rat GnRH receptor (Rattus norvegicus, UniProt P30969); assay: Radioligand binding, 125I-GnRH-A, rat pituitary membranes; parameters: membranes were prepared from rat pituitary; from tissue; host or cells: rat pituitary; conditions: read-out: rGnRH IC50
T2 sequence (P30969 1-327): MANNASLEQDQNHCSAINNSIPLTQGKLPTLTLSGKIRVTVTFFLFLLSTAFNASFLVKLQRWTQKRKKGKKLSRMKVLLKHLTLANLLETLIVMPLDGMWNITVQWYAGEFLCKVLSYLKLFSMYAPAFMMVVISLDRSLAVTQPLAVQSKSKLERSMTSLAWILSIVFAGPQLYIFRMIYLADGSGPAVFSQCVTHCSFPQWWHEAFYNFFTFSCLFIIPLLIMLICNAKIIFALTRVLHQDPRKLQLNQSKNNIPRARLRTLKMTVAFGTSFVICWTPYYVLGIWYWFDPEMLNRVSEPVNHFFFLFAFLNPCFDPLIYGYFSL
How it was run: as §1

bovine GnRH receptor = biological target: T3, bovine GnRH receptor (Bos taurus, UniProt P32236); assay: Radioligand binding, 125I-GnRH-A, bovine pituitary membranes; conditions: read-out: bGnRH IC50
T3 construct: membranes were prepared from bovine pituitary; from tissue; host or cells: bovine pituitary
T3 sequence (P32236 1-328): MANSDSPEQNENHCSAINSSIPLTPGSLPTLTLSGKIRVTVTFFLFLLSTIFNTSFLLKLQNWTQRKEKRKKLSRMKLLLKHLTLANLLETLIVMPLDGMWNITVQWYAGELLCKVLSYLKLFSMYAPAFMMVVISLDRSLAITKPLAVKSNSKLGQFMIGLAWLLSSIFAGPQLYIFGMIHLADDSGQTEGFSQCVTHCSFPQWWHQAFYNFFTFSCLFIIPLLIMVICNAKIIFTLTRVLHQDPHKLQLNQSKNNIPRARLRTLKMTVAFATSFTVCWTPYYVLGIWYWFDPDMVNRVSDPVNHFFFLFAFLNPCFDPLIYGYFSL
Protocol: All compounds were diluted in 1% DMSO (final assay concentration) in binding assay buffer. […] Reactions were terminated by rapid filtration onto 96-well Packard GF/C filters soaked in 0.1% polyethyleneimine. Filters were washed three times with PBS buffer, dried and counted on a Packard Topcount by liquid scintillation counting.
Assay conditions were identical for assessing compound activities at other species. […] IC50 values for control peptides and test compounds were calculated utilizing GraphPad Prism™ software.
The reaction mixture was vortexed and incubated for 1 min at room temperature. After one min, the mixture was vortexed and allowed to incubate for an additional minute. 2 ml of 0.5 M acetic acid/1% BSA was added to the reaction tube and the mixture was added to a C18 Sep-Pak cartridge. The cartridge was washed with subsequent washes of 5 ml H2O and 5 ml 0.5M acetic acid and then eluted with 5×1 ml of 60% CH3CN/40% 0.5M acetic acid. The eluate was diluted with 3× volume of HPLC buffer A (0.1% TFA in H2O) and loaded onto a C18 column. […] The radioactive fractions (750 ed/fraction) are collected into clean polypropylene tubes containing 100 μl of 10% BSA. Fractions were assessed for biological activity by radioligand binding.

[2] = Metabolism rate, pmol/min/mg at 1 μM, human; assay type: in vitro ADME; conditions: 1 μM compound
[3] = Pharmacokinetic studies / bioavailability in rats; assay type: in vivo, rat; conditions: for half-life / Cmax / Tmax: rat, plasma; for Cmax / Tmax: po, p.o. 10 mg/kg; for Cmax / Tmax / Fp.o.: 5 mg/ml solution in 10% DMSO 10% cremophor 80% saline
human GnRH receptor = biological target: T4, human GnRH receptor (Homo sapiens, UniProt P30968); assay: Radioligand binding, 125I-GnRH-A displacement, membranes of HEK 293 cells with human GnRH receptor
T4 construct: expressed in transfected cells; host or cells: HEK 293 (hGnRH-R/293, from Dr. Stuart Sealfon)
T4 sequence (P30968 1-328): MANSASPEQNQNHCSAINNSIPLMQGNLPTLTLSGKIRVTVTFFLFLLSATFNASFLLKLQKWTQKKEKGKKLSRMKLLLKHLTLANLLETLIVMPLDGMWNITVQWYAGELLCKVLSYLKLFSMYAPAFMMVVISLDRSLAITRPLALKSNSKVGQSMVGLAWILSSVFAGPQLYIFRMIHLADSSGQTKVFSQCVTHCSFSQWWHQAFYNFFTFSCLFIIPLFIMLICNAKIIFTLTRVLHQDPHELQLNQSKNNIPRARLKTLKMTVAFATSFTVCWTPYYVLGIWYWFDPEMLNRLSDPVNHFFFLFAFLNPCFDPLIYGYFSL
How it was run: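 After filtration and PBS washes, bound radioactivity was counted by scintillation and IC50 derived. Identical conditions applied for non-human receptors.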

[4] = Metabolism rate, pmol/min/mg at 1 μM, rat female; assay type: in vitro ADME; conditions: 1 μM compound
[5] = second value marked * (mostly in parentheses), asterisk not explained, read-out: hGnRH IC50, value marked *

Row | SMILES | Rat male pmol/min/mg 1 μM [1] [pmol/min/mg] | IC50 (mouse GnRH receptor) [nM] | IC50 (rat GnRH receptor) [nM] | IC50 (bovine GnRH receptor) [nM] | Human pmol/min/mg 1 μM [2] [pmol/min/mg] | half-life ([3]; male, iv, 10 mg/kg, rat male) [h] | IC50 (human GnRH receptor; read-out: hGnRH IC50) [nM] | IC50 (human GnRH receptor; [5]) [nM] | Rat female pmol/min/mg 1 μM [4] [pmol/min/mg] | Cmax ([3]; female, 10 mg/kg, rat female) [nM] | Tmax ([3]; female, 10 mg/kg, rat female) [h] | half-life ([3]; female, rat female) [h] | Fp.o. ([3]; rat female)
1 | COc1ccc(CNC(=O)c2ccc(Cc3cc4c(cc3C)C(C)(C)CCC4(C)C)o2)cc1 [Compound 42] | 1387 | 280 | 100 | 1780 | 361 | 0.967 | 75 | 65 |  |  |  |  | 
2 | Cc1ccc(C(C)(C)C)cc1Cc1ccc(C(=O)NCc2cccc(CNc3ccnc(NC[C@H]4CCCO4)n3)c2)o1 [Compound 212] | 3282 | 62 | 12 |  | 322 |  | 80 |  | 430 | 50 | 1 | 1.6 | 1% (10 mg/kg)^10
3 | COc1cc(OC)c(NC(=O)c2ccc(Cc3c(C)ccc4c3OCCC4(C)C)o2)c(OC)c1 [Compound 222] | 575 | 65 | 78 |  | 115 |  | 110 |  | 167 | 810 | 1.5 | 3.2 | 54% (10 mg/kg)^10
4 | COc1cc2c(cc1Cc1ccc(C(=O)Nc3c(OC)cc(OC)c(C#N)c3OC)o1)C(C)(C)CCC2(C)C [Compound 217] | 953 | 11 | 21 |  | 483 |  | 29 |  | 203 | 100 | 1 | 3.8 | 16% (10 mg/kg)^10
5 | COc1ccc(CNC(=O)c2ccc(Cc3cc4c(cc3C)C(C)(C)CCC4(C)C)o2)c(OC)c1 [Compound 56] | 3412 | 220 | 70 | 1000 | 392 | 2.6 | 100 |  |  |  |  |  | 
6 | COc1cc(OC)c(NC(=O)c2ccc(Cc3cc4c(cc3C)OCCC4(C)C)o2)c(OC)c1 [Compound 221] | 528 | 9.2 | 11 |  | 116 |  | 15 |  | 223 | 340 | 1 | 3 | 41% (10 mg/kg)^10
7 | Cc1cc2c(cc1Cc1ccc(C(=O)NCc3cccs3)o1)C(C)(C)CCC2(C)C [Compound 44] | 1759 | 610 | 510 | 4440 | 459 | 0.917 | 390 | 120 |  |  |  |  | 
8 | COc1cc2c(cc1Cc1ccc(C(=O)NCc3cccc(CNc4ccnc(NC[C@H]5CCCO5)n4)c3)o1)C(C)(C)CCC2(C)C (stereo in doubt) [Compound 199] | 3387 | 15 | 9.6 |  | 181 |  | 92 |  | 181 | 80 | 4 | 1.5 | 10% (10 mg/kg)^10
9 | COc1cccc(OC)c1NC(=O)c1ccc(Cc2c(C)c(C)cc(C)c2C)o1 [Compound 225] | 2180 | 850 | 1510 |  | 450 |  | 174 |  | 330 | 340 | 1 | 1.1 | 24% (10 mg/kg)^10
10 | COC(=O)c1ccc(OC)c(NC(=O)c2ccc(Cc3cc4c(cc3C)C(C)(C)CCC4(C)C)o2)c1 [Compound 72] | 4226 | 85 | 84 | 1440 | 278 |  | 130 |  |  |  |  |  | 
11 | CCOc1cccc(OCC)c1NC(=O)c1ccc(Cc2cc3c(cc2C)C(C)(C)CCC3(C)C)o1 [Compound 194] | 5978 | 14 | 35 |  | 750 |  | 18 |  | 205 |  |  |  | 
12 | Cc1cc2c(cc1Cc1ccc(C(=O)NCc3ccccc3F)o1)C(C)(C)CCC2(C)C [Compound 46] | 1781 | 1880 | 900 | 8700 | 485 | 0.917 |  | 330 |  |  |  |  | 
13 | Cc1cc2c(cc1Cc1ccc(C(=O)NCCOc3ccccc3)o1)C(C)(C)CCC2(C)C [Compound 47] | 2198 | 240 | 130 | 1920 | 392 | 1.5 | 230 | 80 |  |  |  |  | 
14 | Cc1cc2c(cc1Cc1ccc(C(=O)NCc3ccc(CNc4ncccn4)cc3)o1)C(C)(C)CCC2(C)C [Compound 137] |  | 360 | 400 |  | 594 |  | 200 |  | 182 | 230 | 1 | 7.9 | 1% (10 mg/kg)^10
15 | Cc1ccc(C(C)(C)C)cc1Cc1ccc(C(=O)Nc2ccc3[nH]ccc3c2)o1 [Compound 207] | 1236 |  |  |  | 157 |  | 200 |  | 159 | 2810 | 1 | 1.6 | 41% (10 mg/kg)^10
